The record followed here is patent publication US3992535A, “4-Hydroxy-2H-naphtho[2,1-e]-1,2-thiazine-3-carboxamide-1,1-dioxides and salts thereof” (priority 1974, dated 1976).

Series [1] deals with platelet stickiness in human citrate blood. Kind of series: Morris test (platelet stickiness, retention on glass beads). Type of series: cell-based. The conditions noted are these: Platelet, 10 min; 10^-^4 mol/liter, human citrate blood; read-out: Morris test (percentage reduction in the stickiness). How it is done: The principle of the Morris test is described in "Stoffwechsel- and Membranpermeabilitat von Erythrozyten und Thrombozyten, I. Int.
1 ml of human citrate blood was pipetted into each of a number of small test tubes, the test compound was added in the desired concentrations, and the tubes were incubated at 37° C for 10 minutes. 2 gm each of glass beads (about 100 mesh) were added to half of the tubes. The tubes, stoppered by means of a plastic plug, were attached to a vertical wheel and rotated for 45 seconds end-over-end. The same tubes were then left to stand at ambient temperature for a further hour, after which time a sedimentation of erythrocytes and glass beads had taken place. 0.01 ml of the supernatant plasma was removed and diluted with 1:800 celloscope solution. The platelet count was read in a celloscope. The percentage of the thrombocytes retained in the sediment (adhering to the glass beads or aggregating) was calculated from the difference of the thrombocyte counts with and without glass contact.
The results were expressed in terms of the percentage reduction in the stickiness compared with the control (without addition of test compound).

The subject of series [2] is adjuvant arthritis in the rat. The experiment in a line: Adjuvant arthritis in the rat. Type of series: in vivo. As for the experimental part: d. Adjuvant arthritis in the rat: The adjuvant arthritis tests in rats were carried out according to the method of Rosenthale and Nagra [Proc. Soc. exp. Biol. 125, 149 (1967)]. […] The test compound was administered once a day, starting with the day of the M. butyricum-injection, for a period of 20 days by means of an esophageal tube. […] An ED50 was determined graphically from the reduction of the swelling caused by the administration of different doses.

Series [3] concerns carrageenin-induced edema of the hind paw of the rat. The experiment in a line: Carrageenin edema of the back paw of the rat. The class given is in vivo. The conditions noted are these: per os, 60 minutes before edema, swelling at 3 hours. As for the experimental part: (§1) Compound A and known compound B were tested to determine their actue antiexsudative effect on the kaolin-induced edema and the carrageenin-induced edema of the hind paw of the rat and their acute toxicity after oral administration in rats.
b. Carrageenin edema of the back paw of the rat:
(§2) The provocation of the carrageenin edema was effected according to the method of Winter et al [Proc. Soc. exp. Biol. Med. 111, 544 (1962)] by subplantar injection of 0.05 ml of a 1% solution of carrageenin in an aqueous 0.85% solution of sodium chloride. The test compound was administered 60 minutes before the provocation of the edema.
(§3) For the calculation of the reductive effect on the edema, the size of the swelling was measured 3 hours after the provocation of the edema. All the other details were the same as described above in the case of the kaolin edema.
A general note: The carrageenan paw model is a standard test of acute inflammation.

Series [4] concerns thrombocyte aggregation in the platelet-rich plasma of healthy human donors. The experiment in a line: Born test; collagen aggregation. Type of series: cell-based. How it is done:
b. […] The rate of decline of the optical density of platelet suspensions was measured and recorded photometrically after the addition of commercial collagen. From the angle of inclination of the density curve, the rate of aggregation was estimated. The optical density was taken at the point on the curve where most light was transmitted. The amount of collagen was chosen such that an irreversible control curve was obtained. The results were expressed in terms of the optical density and represent the percentage change in light transmission (= % diminution of the aggregation) caused by the test compound compared with the untreated control.

Series [5] deals with kaolin- and carrageenin-induced edemas. Kind of series: Kaolin and carrageenin edema combined: average ED35 and therapeutic ratio LD50/ED35. Type of series: in vivo. How it is done: (§4) The kaolin edema was induced according to the method of Hillebrecht [Arzneimittel-Forsch. 4, 607 (1954] by subplantar injection of 0.05 ml of a 10% suspension of kaolin in an aqueous 0.85% sodium chloride solution. Measurement of the thickness of the paws was effected using the technique of Doepfner and Cerletti [Int. Arch. Allergy Immunol. 12, 89 (1958)]. The test compound was administered perorally by means of an esophageal tube to male FW 49-rats having an average body weight of 120 to 150 gm 30 minutes before inducing the edema. 5 hours after the provocation of the edema, the average size of the swelling in the rats treated with the test compound was compared with the average size of the swelling in the control animals treated by a dummy procedure. By graphical extrapolation, the dose leading to a 35% reduction of the swelling (ED35) was calculated from the percentage reduction in the size of the swelling caused by the administration of different doses.
as §2, §3
The therapeutic index (a measure of the therapeutic usefulness) was calculated as the quotient of the oral LD50 value and the ED35 value derived from the tests to determine the antiexsudative activity against kaolin- and carrageenininduced edemas.

Series [6] relates to kaolin-induced edema of the hind paw of the rat. Kind of series: Kaolin edema of the hind paw of the rat. The class given is in vivo. The conditions noted are these: per os, 30 minutes before edema, 35% reduction of swelling at 5 hours. How it is done:
as §1
a. Kaolin edema of the hind paw of the rat:
as §4

The next series relates to rat. Kind of series: Acute toxicity in the rat, oral. The conditions noted are these: per os, vs compound E. The class given is in vivo. As for the experimental part:
(§5) The test compound was administered in the form of a trituration in tylose.
(§6) The calculation of the LD50 values was effected, to the extent possible, according to the method of Litchfield and Wilcoxon, based on the percentage of animals which died within 14 days after administration of the different doses.

Series [7] is described as follows: Acute toxicity in the rat, oral. Type of series: in vivo. The conditions noted are these: in vivo, po, per os, male and female FW 49-rats, within 14 days. As for the experimental part:
as §5, §6

Structures are written as SMILES.

For the compound `CN1C(C(=O)Nc2nccs2)=C(O)c2ccc3ccccc3c2S1(=O)=O` [Compound A, 4-Hydroxy-2-methyl-N-(2-thiazolyl)-2H-naphtho[2,1-e]-1,2-thiazine-3-carboxamide-1,1-dioxide], the inhibition at 100 µM in series [1] was 43%; in series [4] (Homo sapiens, 10^-^4 mol/liter, read-out: Born test (% diminution of the aggregation)), 96%. Also, in series [2], the “activity against adjuvant arthritis (in words)” value is “surprisingly strong activity”. Also, in series [2] (po, 504 h, per os, once a day for 20 days, paw volume on 21st day, read-out: Adjuvant arthritis in the rat ED50 per os (average value of primary and secondary reaction)), the ED50 (usually the dose that gives a 50% effect, or the effect in half of the subjects) was below 2 mg/kg. In addition, the “activity against adjuvant arthritis compared with phenylbutazone (D) (in words)” value in series [2] (vs phenylbutazone (D)) is “far superior”. Besides, the ED35 in series [3] was 11 mg/kg; in series [5] (Rattus norvegicus, read-out: Average value ED35), 12.2 mg/kg; in series [6] it was 13.5 mg/kg. Also, the inhibition at 10 µM in series [4] (Homo sapiens, 10^-^5 mol/liter, read-out: Born test (% diminution of the aggregation)) worked out at 95%. Further, the inhibition at 1 µM in series [4] (Homo sapiens, 10^-^6 mol/liter, read-out: Born test (% diminution of the aggregation)) was 92%. Moreover, the inhibition at 0.1 µM in series [4] (Homo sapiens, 10^-^7 mol/liter, read-out: Born test (% diminution of the aggregation)) stood at 65%. Moreover, the “50% diminution of the aggregation: times lower concentration than compound E” value in series [4] (vs compound E (sudoxicam)) was “at least 10 times lower”. Further, in series [4] (vs compound E (sudoxicam)), the “inhibiting effect on the thrombocyte aggregation compared with compound E (in words)” value was “significantly stonger”. In addition, the “Therapeutic ratio: ratio of toxic and anti-exsudative activity LD50 / ED35” value in series [5] (oral LD50 / average ED35, rat) worked out at 16.9. Moreover, in series [5] (vs compound B (indomethacin)), the “therapeutic ratio relative to known compound B” value was “twice as great”. In the series with rat, the “toxicity compared with compound E (in words)” value is “less toxic”. Besides, the LD50 – broadly, the dose expected to kill half of the subjects tested – at 336 h in series [7] turned out to be 207 mg/kg.
